Test results taken from patent US20260365696A1, “INHIBITORS OF PTP1B / NCK1 INTERACTION AND METHODS OF MAKING AND USING SAME” (Radella Pharmaceuticals LLC, priority 2023, published 2026).

Molecular target: T1, interaction between PTP1B and the SH3-2 domain of NCK1 (Homo sapiens, UniProt P16333)
T1 construct: FLAG-PTP1B from HEK293 lysate
Experiment: GST pull-down / co-immunoprecipitation screen for disruption of the PTP1B / NCK1 SH3-2 interaction
Assay type: binding
Conditions: peptide 1 mM; for disruption of the interaction between PTP1B and the SH3-2 domain of NCK1: GST-SH3-2 and FLAG-PTP1B
Description: FIG. 4A depicts an immunoblot showing that certain peptides prevent co-immunoprecipitation of FLAG-PTP1B and GST-tagged SH3-2 domain of NCK1 (“SH3”). GST was fused to full-length NCK1 (“Nck1”), all SH3 domains of NCK1 (“SH3”), the NCK1 SH2 domain (“SH2”), the NCK1 SH3-1 domain (“SH3 1”), the NCK1 SH3-2 domain (“SH3 2”), and the NCK1 SH3-3 domain (“SH3 3”). GST alone was used as a negative control (“GST”). FLAG-PTP1B was incubated with the indicated bead-bound GST-fusion protein, and FLAG-PTP1B was detected in the IP eluate by western blotting. The outlined region in column “SH3-2” identifies the PTP1B band. For GST-SH3-2 and FLAG-PTP1B, the mixture was further incubated with one of peptides A through K, (1 mM). FIG. 4B depicts an input control for the immunoblot. FIG. 4C depicts a Ponceau stain for the immunoblot, which was used to measure total protein.
Construction and Purification of GST constructs: Human NCK1 (NM_006153) human cDNA was obtained (Origene, MD, USA). GST fusion constructs (GST-only control, GST full length NCK1, GST all SH3 domains of NCK1, GST SH2 domain of NCK1, GST SH3-1, GST SH3-2 and GST SH3-3) were amplified, double digested (EcoRI and XhoI, New England Biolabs), ligated in to pGEX-6P-2 vector (#M2200S, New England Biolabs; #GE28-9546-50, Merck), transformed in to DH5α E. coli cells (#C2987H, NEB) and purified using a plasmid preparation kit according to manufacturer's instructions (#T1010, New England Biolabs). GST-constructs were transformed in to BL21-Gold E. coli cells (#230134, Agilent), and GST-fusion proteins were produced, extracted, and bound to GST beads as described in Example 1. Beads were washed three times with STE buffer and stored at 4 °C.
GST pull-down experiments for compounds screening against FLAG PTP1B interaction with SH3-2 domain of NCK1. GST-bound agarose beads of SH3-2 domain were incubated overnight at 4 °C with lysates from HEK293 cells overexpressing FLAG PTP1B protein, to gether with various peptide compounds (1 mM) to screen for inhibition of PTP1B-NCK1 binding. Following overnight incubation, agarose beads were three times washed in STE buffer, and proteins were eluted in SDS-Laemmli buffer by heating at 95 °C for 10 min. Samples were spun at 12,000 rpm for 2 min, and the liquid fraction was transferred in to 1 mL Eppendorf tubes. Proteins were separated and detected by chemiluminescent Western Blotting (PEQLAB, Germany) using anti-FLAG HRP antibody (#A8592, Sigma).

Row | Substance | binding to full-length NCK1 (concluded from pull-down) | disruption of the interaction between PTP1B and the SH3-2 domain of NCK1
1 | Ac-PPPEHIPPPPRPPKR-NH2 [MD17] | bind to full-length NCK1, specifically, at SH3-2 domain | disrupt the interaction between PTP1B and the SH3-2 domain of NCK1
2 | Ac-PRPPKR-NH2 [MD20, Ac-PRPPKR-NH2] | bind to full-length NCK1, specifically, at SH3-2 domain | disrupt the interaction between PTP1B and the SH3-2 domain of NCK1
